Our source for the Kd values is PubChem BioAssay AID608 (Sanford-Burnham Center for Chemical Genomics, 2007).

Calls of active or inactive are those of the source. The rule behind the calls is not given here.

As usually defined, the Kd is the equilibrium constant for the complex coming apart.

Peptidyl-prolyl cis-trans isomerase FKBP1A (Homo sapiens), sequence (P62942 whole entry, looked up): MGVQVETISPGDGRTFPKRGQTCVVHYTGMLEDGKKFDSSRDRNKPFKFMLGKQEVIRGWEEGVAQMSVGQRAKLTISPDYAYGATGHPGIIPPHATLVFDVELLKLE

This test has as its target Peptidyl-prolyl cis-trans isomerase FKBP1A (Homo sapiens) (UniProt P62942). Kind of test: FKBP12 binders, biophysical, NMR detection (AID 608). The note with it: NMR binding, purified FKBP12.
Take `CC(=O)Nc1ccc(CN2CCOCC2)cc1`: the Kd is > 4 mM (inactive).

Turning to `O=C(NCc1ccco1)c1nc2ncccn2n1`, the Kd was > 4 mM (inactive).

As for `Nc1cc(N)nc(SCc2ccccc2)n1`, the Kd was > 4 mM (inactive).

In the case of `CCOC(=O)CC1Sc2ccccc2NC1=O` (centres undefined), the Kd was > 4 mM (inactive).

Regarding `O=C(O)C1CN2CCC1CC2` (centres undefined), the Kd is > 4 mM (inactive).

As for `CC[C@H](CCC(C)[C@H]1CCC2C3CCC4C[C@@H](O)CC[C@]4(C)C3CC[C@@]21C)C(C)C` (some centres undefined), the Kd was > 4 mM (inactive).

On to `Nc1ccc(C(=O)NCC2CCCO2)cc1` (centres undefined), for which the Kd was > 4 mM (inactive).

On to `O=P1(O)c2ccccc2Nc2ccccc21`, for which the Kd was > 4 mM (inactive).

As for `O=C1CCCN1c1ccc(S(=O)O)cc1`, the Kd is > 4 mM (inactive).

With `NC(=O)c1ccc(-c2ccccn2)s1`, the Kd was > 4 mM (inactive).

Turning to `COc1cc(S(=O)(=O)Nc2cccnc2)ccc1F`, the Kd is > 4 mM (inactive).

With `CCCCn1c(S(=O)(=O)O)nc2ccccc21`, the Kd is > 4 mM (inactive).

`NCc1ccc2c(c1)OCO2`: the Kd was > 4 mM (inactive).

For the compound `CCN1CCC(NC2CCCCNC2=O)CC1` (centres undefined), the Kd is > 4 mM (inactive).

Take `Cc1nc2ccccc2c(=O)n1CCCO`: the Kd was > 4 mM (inactive).

Turning to `COC(=O)CCSCC(=O)Nc1nccs1`, the Kd is > 4 mM (inactive).

Take `Cc1cc(N2CCN(C)CC2)ncn1`: the Kd is > 4 mM (inactive).

For the compound `O=C(CSc1ncccn1)NCc1ccco1`, the Kd was > 4 mM (inactive).

In the case of `COC(=O)c1cccc2cc[nH]c12`, the Kd was > 4 mM (inactive).

In the case of `Cc1ccc(C(=O)NCCO)c(Cl)c1`, the Kd is > 4 mM (inactive).

As to `Cc1nc(-c2cccc(C(=O)O)c2)cs1`, the Kd is > 4 mM (inactive).

`COc1ccc(C2NC(C(=O)O)CS2)cc1` (centres undefined): the Kd is > 4 mM (inactive).

For the compound `Nc1cc(=O)[nH]c(=S)n1-c1cccc(C(F)(F)F)c1`, the Kd was > 4 mM (inactive).

In the case of `CC(=O)Nc1ccc(NC(=O)c2ccnn2C)cc1`, the Kd is > 4 mM (inactive).

On to `O=C(O)c1sccc1-n1cccc1`, for which the Kd is > 4 mM (inactive).

With `Cc1cc(=O)n2[nH]c(C)cc2n1`, the Kd is > 4 mM (inactive).

For `O=C(O)C1C(=O)NCC1c1ccccc1` (centres undefined), the Kd is > 4 mM (inactive).

`CCNC(=S)N1CCCC(C(N)=O)C1` (centres undefined): the Kd was > 4 mM (inactive).

In the case of `O=C(O)C1CSC2(CCCCC2)N1` (centres undefined), the Kd is > 4 mM (inactive).

On to `CNc1nc(C)nc(-n2nc(C)cc2C)n1`, for which the Kd is > 4 mM (inactive).

Regarding `NC(=O)CS(=O)(=O)c1ccc(Cl)cc1`, the Kd is > 4 mM (inactive).

`C(=N\n1cnnc1)/c1cccs1`: the Kd was > 4 mM (inactive).

`COC(=O)c1c(C)cc(OC(=O)c2c(C)cc(O)c(C=O)c2O)c(C)c1O`: the Kd is > 4 mM (inactive).

On to `CN(C)C(=S)Nc1ccccc1N1CCOCC1`, for which the Kd is > 4 mM (inactive).

Regarding `Cc1cc(-c2ccccc2)nc2cc(C(N)=O)nn12`, the Kd is > 4 mM (inactive).

Regarding `COc1ccc2c(c1)CCCN2C(N)=O`, the Kd was > 4 mM (inactive).

`CC(O)C(=O)N/N=C/c1cccs1` (centres undefined): the Kd was > 4 mM (inactive).

Take `CNC(=S)NCCN1CCOCC1`: the Kd was > 4 mM (inactive).

Turning to `CC(C)(C)c1cc(N)n[nH]1`, the Kd was > 4 mM (inactive).

Regarding `c1ccc(C[N+]23CCN(CC2)c2ccccc23)cc1`, the Kd is > 4 mM (inactive).

On to `C=C(C)[C@@H]1[C@H]2OC(=O)[C@@H]1[C@]1(O)C[C@H]3O[C@]34C(=O)O[C@H]2[C@]14C`, for which the Kd was > 4 mM (inactive).

On to `O=C(O)Cc1nc(-c2ccncc2)n[nH]1`, for which the Kd is > 4 mM (inactive).

`O=c1cc(O)n(-c2ccc(F)cc2)c(=S)[nH]1`: the Kd is > 4 mM (inactive).

As for `N#CCCn1ccnc1-c1ccccc1`, the Kd is > 4 mM (inactive).
